Measured values taken from patent US20020137929A1, “1 - (3-heterocyclylphenyl) isothiourea, -isourea, -guanidine and -amidine herbicidal agents” (Intellectual Property Department, BASF Aktiengesellschaft, priority 1998, published 2002).

Columns and labels:
ABUTH (Velvetleaf) = assay: Postemergence herbicidal evaluation; format: in vivo, Abutilon theophrasti; conditions: postemergence
In short: (§1)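 Visual 0–9 rating versus control (stand, vigor, malformation, size, chlorosis, overall appearance), taken four to five weeks post-spray. Two-week-old seedlings received roughly 0.0156–0.500 kg/ha active in acetone/water (50/50) with 0.5% TWEEN 20 via nozzle at 40 psi.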

AMBEL (Ragweed, Common) [1] = assay: Postemergence herbicidal evaluation; format: in vivo, Ambrosia artemisifolia; conditions: postemergence
In short: as §1

[2] = test system: CHEAL (Lambsquarters, Common); assay: Postemergence herbicidal evaluation; format: in vivo, Chenopodium album; conditions: postemergence
In short: as §1

ECHCG (Barnyardgrass) = assay: Postemergence herbicidal evaluation; format: in vivo, Echinochloa crus-galli; conditions: postemergence
In short: as §1

[3] = test system: GLXMAW (Soybean, Williams); assay: Postemergence herbicidal evaluation; format: in vivo, Glycine max, (L.) Merr. cv Williams; conditions: postemergence
In short: as §1

ORYSAT (Rice, Tebonnet) = assay: Postemergence herbicidal evaluation; format: in vivo, Oryza sativa, (L.) Tebonnet; conditions: postemergence
In short: as §1

ZEAMX (Corn, Field) = assay: Postemergence herbicidal evaluation; format: in vivo, Zea mays; conditions: postemergence
In short: as §1

AMBEL (Ragweed, Common) [4] = assay: Preemergence herbicidal evaluation; format: in vivo, Ambrosia artemisifolia; conditions: rated 4-5 weeks after treatment
In short: (§2)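 Rating at 4–5 wk post-spray on a 0–9 visual scale vs control. Application: aqueous acetone, ~0.0156–0.500 kg/ha, to soil surface after seeding, preemergence.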

CASOB (Sicklepod) = assay: Preemergence herbicidal evaluation; format: in vivo, Cassia obtusifolia; conditions: rated 4-5 weeks after treatment
In short: as §2

[5] = test system: CHEAL (Lambsquarters, Common); assay: Preemergence herbicidal evaluation; format: in vivo, Chenopodium album; conditions: rated 4-5 weeks after treatment
In short: as §2

GALAP (Galium) = assay: Preemergence herbicidal evaluation; format: in vivo, Galium aparine; conditions: rated 4-5 weeks after treatment
In short: as §2

CYPSE (Flatsedge) = assay: Preemergence weed control under flooded paddy conditions; format: in vivo, Cyperus serotinus; conditions: rated 3-4 weeks after treatment
In short: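 Using flooded silt loam (water 1.5 to 3 cm deep), seeds sown in the top 0.5 cm were exposed preemergence to compound pipetted into the flood at about 0.0313 to 0.500 kg/ha. Effects were scored 0-9 by eye three to four weeks later.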

[6] = rate 0.0156 kg/ha, rating scale 0-9
[7] = rate 0.0313 kg/ha, rating scale 0-9
[8] = rate 0.0625 kg/ha, rating scale 0-9
[9] = rate 0.1250 kg/ha, rating scale 0-9
[10] = rate 0.2500 kg/ha, rating scale 0-9

## CCOC(=O)CN1C(=O)C(C(=O)OC)SC1=Nc1cc(-n2c(=O)cc(C(F)(F)F)n(C)c2=O)c(F)cc1Cl (stereo not drawn) [Compound 128, 5-Carboxy-2-{{2-chloro-5-[3,6-dihydro-3-methyl-2,6-dioxo-4-(trifluoromethyl)-1(2H)-pyrimidinyl]-4-fluorophenyl}imino}-4-oxo-3-thiazolidineacetic acid, 3-ethyl methyl ester]
ABUTH (Velvetleaf); rate 0.0156 kg/ha
  Herbicidal rating ABUTH: 6.0
ABUTH (Velvetleaf); rate 0.0313 kg/ha
  Herbicidal rating ABUTH: 9.0
ABUTH (Velvetleaf); rate 0.0625 kg/ha
  Herbicidal rating ABUTH: 9.0
AMBEL (Ragweed, Common) [1]; rate 0.0156 kg/ha
  Herbicidal rating AMBEL: 7.0
AMBEL (Ragweed, Common) [1]; rate 0.0313 kg/ha
  Herbicidal rating AMBEL: 9.0
AMBEL (Ragweed, Common) [1]; rate 0.0625 kg/ha
  Herbicidal rating AMBEL: 9.0
[2]; rate 0.0156 kg/ha
  Herbicidal rating CHEAL: 4.0
[2]; rate 0.0313 kg/ha
  Herbicidal rating CHEAL: 9.0
[2]; rate 0.0625 kg/ha
  Herbicidal rating CHEAL: 9.0
ECHCG (Barnyardgrass); rate 0.0156 kg/ha
  Herbicidal rating ECHCG: 1.0
ECHCG (Barnyardgrass); rate 0.0313 kg/ha
  Herbicidal rating ECHCG: 2.0
ECHCG (Barnyardgrass); rate 0.0625 kg/ha
  Herbicidal rating ECHCG: 1.0
[3]; rate 0.0156 kg/ha
  Herbicidal rating GLXMAW: 4.5
[3]; rate 0.0313 kg/ha
  Herbicidal rating GLXMAW: 4.5
[3]; rate 0.0625 kg/ha
  Herbicidal rating GLXMAW: 6.0
ORYSAT (Rice, Tebonnet); rate 0.0156 kg/ha
  Herbicidal rating ORYSAT: 1.5
ORYSAT (Rice, Tebonnet); rate 0.0313 kg/ha
  Herbicidal rating ORYSAT: 2.0
ORYSAT (Rice, Tebonnet); rate 0.0625 kg/ha
  Herbicidal rating ORYSAT: 2.5
ZEAMX (Corn, Field); rate 0.0156 kg/ha
  Herbicidal rating ZEAMX: 3.5
ZEAMX (Corn, Field); rate 0.0313 kg/ha
  Herbicidal rating ZEAMX: 4.0
ZEAMX (Corn, Field); rate 0.0625 kg/ha
  Herbicidal rating ZEAMX: 6.0
AMBEL (Ragweed, Common) [4]; rate 0.0156 kg/ha
  Preemergence herbicidal rating AMBEL: 0.0
AMBEL (Ragweed, Common) [4]; rate 0.0313 kg/ha
  Preemergence herbicidal rating AMBEL: 0.0
AMBEL (Ragweed, Common) [4]; rate 0.0625 kg/ha
  Preemergence herbicidal rating AMBEL: 0.0
AMBEL (Ragweed, Common) [4]; rate 0.1250 kg/ha
  Preemergence herbicidal rating AMBEL: 2.0
AMBEL (Ragweed, Common) [4]; rate 0.2500 kg/ha
  Preemergence herbicidal rating AMBEL: 3.0
CASOB (Sicklepod); rate 0.0156 kg/ha
  Preemergence herbicidal rating CASOB: 0.0
CASOB (Sicklepod); rate 0.0313 kg/ha
  Preemergence herbicidal rating CASOB: 1.0
CASOB (Sicklepod); rate 0.0625 kg/ha
  Preemergence herbicidal rating CASOB: 1.0
CASOB (Sicklepod); rate 0.2500 kg/ha
  Preemergence herbicidal rating CASOB: 0.0
[5]; rate 0.0156 kg/ha
  Preemergence herbicidal rating CHEAL: 9.0
[5]; rate 0.0313 kg/ha
  Preemergence herbicidal rating CHEAL: 7.0
[5]; rate 0.0625 kg/ha
  Preemergence herbicidal rating CHEAL: 9.0
[5]; rate 0.1250 kg/ha
  Preemergence herbicidal rating CHEAL: 9.0
[5]; rate 0.2500 kg/ha
  Preemergence herbicidal rating CHEAL: 9.0
GALAP (Galium); rate 0.0156 kg/ha
  Preemergence herbicidal rating GALAP: 0.0
GALAP (Galium); rate 0.0313 kg/ha
  Preemergence herbicidal rating GALAP: 0.0
GALAP (Galium); rate 0.0625 kg/ha
  Preemergence herbicidal rating GALAP: 0.0
GALAP (Galium); rate 0.1250 kg/ha
  Preemergence herbicidal rating GALAP: 1.0
GALAP (Galium); rate 0.2500 kg/ha
  Preemergence herbicidal rating GALAP: 1.0
CYPSE (Flatsedge); 0.0625 kg/ha
  herbicidal effect rating, CYPSE: 0.0
CYPSE (Flatsedge); 0.2500 kg/ha
  herbicidal effect rating, CYPSE: 3.0

## C=C1SC(=Nc2cc(-n3c(=O)cc(C(F)(F)F)n(C)c3=O)c(F)cc2Cl)N(CC(=O)OCC)C1=O [Compound 154]
ABUTH (Velvetleaf); rate 0.0156 kg/ha
  Herbicidal rating ABUTH: 9.0
ABUTH (Velvetleaf); rate 0.0313 kg/ha
  Herbicidal rating ABUTH: 9.0
ABUTH (Velvetleaf); rate 0.0625 kg/ha
  Herbicidal rating ABUTH: 9.0
AMBEL (Ragweed, Common) [1]; rate 0.0156 kg/ha
  Herbicidal rating AMBEL: 3.0
AMBEL (Ragweed, Common) [1]; rate 0.0313 kg/ha
  Herbicidal rating AMBEL: 9.0
AMBEL (Ragweed, Common) [1]; rate 0.0625 kg/ha
  Herbicidal rating AMBEL: 9.0
[2]; rate 0.0156 kg/ha
  Herbicidal rating CHEAL: 9.0
[2]; rate 0.0313 kg/ha
  Herbicidal rating CHEAL: 9.0
[2]; rate 0.0625 kg/ha
  Herbicidal rating CHEAL: 9.0
ECHCG (Barnyardgrass); rate 0.0156 kg/ha
  Herbicidal rating ECHCG: 0.0
ECHCG (Barnyardgrass); rate 0.0313 kg/ha
  Herbicidal rating ECHCG: 0.0
ECHCG (Barnyardgrass); rate 0.0625 kg/ha
  Herbicidal rating ECHCG: 0.0
[3]; rate 0.0156 kg/ha
  Herbicidal rating GLXMAW: 5.5
[3]; rate 0.0313 kg/ha
  Herbicidal rating GLXMAW: 6.0
[3]; rate 0.0625 kg/ha
  Herbicidal rating GLXMAW: 7.5
ORYSAT (Rice, Tebonnet); rate 0.0156 kg/ha
  Herbicidal rating ORYSAT: 0.5
ORYSAT (Rice, Tebonnet); rate 0.0313 kg/ha
  Herbicidal rating ORYSAT: 1.5
ORYSAT (Rice, Tebonnet); rate 0.0625 kg/ha
  Herbicidal rating ORYSAT: 2.0
ZEAMX (Corn, Field); rate 0.0156 kg/ha
  Herbicidal rating ZEAMX: 4.0
ZEAMX (Corn, Field); rate 0.0313 kg/ha
  Herbicidal rating ZEAMX: 4.0
ZEAMX (Corn, Field); rate 0.0625 kg/ha
  Herbicidal rating ZEAMX: 5.0
AMBEL (Ragweed, Common) [4]; [6]
  Preemergence herbicidal rating AMBEL: 3.0
AMBEL (Ragweed, Common) [4]; [7]
  Preemergence herbicidal rating AMBEL: 5.0
AMBEL (Ragweed, Common) [4]; [8]
  Preemergence herbicidal rating AMBEL: 9.0
AMBEL (Ragweed, Common) [4]; [9]
  Preemergence herbicidal rating AMBEL: 9.0
AMBEL (Ragweed, Common) [4]; [10]
  Preemergence herbicidal rating AMBEL: 9.0
CASOB (Sicklepod); [6]
  Preemergence herbicidal rating CASOB: 0.0
CASOB (Sicklepod); [7]
  Preemergence herbicidal rating CASOB: 0.0
CASOB (Sicklepod); [8]
  Preemergence herbicidal rating CASOB: 9.0
CASOB (Sicklepod); [9]
  Preemergence herbicidal rating CASOB: 9.0
CASOB (Sicklepod); [10]
  Preemergence herbicidal rating CASOB: 9.0
[5]; [6]
  Preemergence herbicidal rating CHEAL: 9.0
[5]; [7]
  Preemergence herbicidal rating CHEAL: 9.0
[5]; [8]
  Preemergence herbicidal rating CHEAL: 9.0
[5]; [9]
  Preemergence herbicidal rating CHEAL: 9.0
[5]; [10]
  Preemergence herbicidal rating CHEAL: 9.0
GALAP (Galium); [6]
  Preemergence herbicidal rating GALAP: 0.0
GALAP (Galium); [7]
  Preemergence herbicidal rating GALAP: 0.0
GALAP (Galium); [8]
  Preemergence herbicidal rating GALAP: 4.0
GALAP (Galium); [9]
  Preemergence herbicidal rating GALAP: 9.0
GALAP (Galium); [10]
  Preemergence herbicidal rating GALAP: 9.0
CYPSE (Flatsedge); 0.0313 kg/ha
  herbicidal effect rating, CYPSE: 4.0
CYPSE (Flatsedge); 0.0625 kg/ha
  herbicidal effect rating, CYPSE: 6.0
CYPSE (Flatsedge); 0.1250 kg/ha
  herbicidal effect rating, CYPSE: 9.0
CYPSE (Flatsedge); 0.2500 kg/ha
  herbicidal effect rating, CYPSE: 9.0
